# In article PMC5750217 (Nature Communications, 2018):
# Where a chain is given by its changes, count along the chain named. Names may count otherwise. “And” between values parts separate entries of the source, which are not always exact repeats. Equal entries are not always repeated. Where two headings read alike, the source gives them in different places.
# T1: wild-type GltPh (Pyrococcus horikoshii, UniProt O59010)
# T1 construct: hexa-His (N, cleaved yes); made in house; host or cells: Escherichia coli Top10 (pBAD)
# T1 sequence (O59010 1-425): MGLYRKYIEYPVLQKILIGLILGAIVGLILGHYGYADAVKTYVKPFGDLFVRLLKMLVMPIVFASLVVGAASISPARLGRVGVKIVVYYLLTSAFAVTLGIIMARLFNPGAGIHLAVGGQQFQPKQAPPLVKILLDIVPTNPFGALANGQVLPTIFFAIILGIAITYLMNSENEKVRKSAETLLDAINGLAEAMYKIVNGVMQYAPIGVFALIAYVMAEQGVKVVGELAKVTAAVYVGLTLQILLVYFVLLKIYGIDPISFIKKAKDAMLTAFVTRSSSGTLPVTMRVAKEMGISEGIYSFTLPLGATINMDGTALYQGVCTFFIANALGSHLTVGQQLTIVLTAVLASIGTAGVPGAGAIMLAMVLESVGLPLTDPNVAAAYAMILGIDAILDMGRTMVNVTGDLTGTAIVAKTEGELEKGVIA
# B1: GltPh-R397C (natural protein, Pyrococcus horikoshii)
# chain: MGLYRKYIEYPVLQKILIGLILGAIVGLILGHYGYADAVKTYVKPFGDLFVRLLKMLVMPIVFASLVVGAASISPARLGRVGVKIVVYYLLTSAFAVTLGIIMARLFNPGAGIHLAVGGQQFQPKQAPPLVKILLDIVPTNPFGALANGQVLPTIFFAIILGIAITYLMNSENEKVRKSAETLLDAINGLAEAMYKIVNGVMQYAPIGVFALIAYVMAEQGVKVVGELAKVTAAVYVGLTLQILLVYFVLLKIYGIDPISFIKKAKDAMLTAFVTRSSSGTLPVTMRVAKEMGISEGIYSFTLPLGATINMDGTALYQGVCTFFIANALGSHLTVGQQLTIVLTAVLASIGTAGVPGAGAIMLAMVLESVGLPLTDPNVAAAYAMILGIDAILDMGCTMVNVTGDLTGTAIVAKTEG
# notes: GltPh of Pyrococcus horikoshii, wild-type background, with the point mutation R397C; Crystallised with L-cysteine, L-serine or benzylcysteine (5 mM each); source: E. coli Top10, purified (Ni-NTA, thrombin digestion, Superdex 200 SEC in detergent); not shown: His6, N-terminal, cleaved
# B2: wild-type GltPh, aspartate transporter from Pyrococcus horikoshii (natural protein)
# chain: B1 chain with C397R
# notes: GltPh, Na+-dependent aspartate transporter of the archaeon Pyrococcus horikoshii; wild-type background (not the seven-histidine mutant CAT-7); Crystallised with L-aspartate and Na+ in n-decyl-maltopyranoside; Three protomers in the asymmetric unit (threefold NCS); also called Wt; source: E. coli Top10, purified (Ni-NTA, thrombin digestion, Superdex 200 SEC in detergent); not shown: His6, …
# How the values were obtained:
# GltPh-R397C [1] = molecular target: T2, GltPh-R397C (Pyrococcus horikoshii, UniProt O59010, R397C); assay: biochemical
# T2 construct: hexa-His (N, cleaved yes); made in house; host or cells: Escherichia coli Top10 (pBAD)
# T2 sequence (O59010 whole entry R397C): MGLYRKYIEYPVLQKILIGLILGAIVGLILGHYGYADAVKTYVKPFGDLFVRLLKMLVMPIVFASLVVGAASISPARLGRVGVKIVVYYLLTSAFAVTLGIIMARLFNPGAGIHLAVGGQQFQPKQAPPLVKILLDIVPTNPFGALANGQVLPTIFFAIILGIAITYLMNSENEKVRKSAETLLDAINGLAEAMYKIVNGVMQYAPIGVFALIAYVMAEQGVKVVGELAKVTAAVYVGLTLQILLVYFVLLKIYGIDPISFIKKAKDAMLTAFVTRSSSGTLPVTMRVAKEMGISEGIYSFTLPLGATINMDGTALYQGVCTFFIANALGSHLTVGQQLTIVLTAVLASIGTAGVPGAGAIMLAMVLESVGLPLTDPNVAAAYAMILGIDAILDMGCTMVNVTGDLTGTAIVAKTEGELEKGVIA
# Experimental: (§1) Mutant and wild-type GltPh with an amino-terminal hexa-His tag were expressed in Escherichia coli Top10 cells (Invitrogen), which were grown in Luria broth medium at 37 °C. Ampicillin was added to a final concentration of 100 μg per ml. To induce expression of GltPh, 0.1% L-arabinose was added when cells reached an optical density of 0.6 at 660 nm, and cells were harvested 4 h post induction. Membranes were isolated, and then solubilised with n-dodecyl-β-D-maltopyranoside (C12M, Anatrace). Histidine containing proteins were purified using Ni^2+−nitrilotriacetic acid resin (Qiagen). The histidine tag was subsequently removed from GltPh by digestion with thrombin (10 U per mg protein) and the protein further purified on a Superdex 200 size exclusion column, where the detergent was exchanged to n-decyl-β-D-maltopyranoside (C10M, Anatrace).
# (§2) Pure protein was reconstituted into liposomes composed of 75% E. coli Polar Lipid Extract and 25% 1-palmitoyl-2-oleoyl-sn-glycero-3 ^−phopshocholine (Avanti Polar Lipids). Lipids were mixed, dried under nitrogen and resuspended in internal buffer (100 mM KCl, 20 mM HEPES-Tris pH 7.5) using brief sonication (Laboratory Supplies Co.). The lipid suspension was frozen in liquid nitrogen and thawed at room temperature several times. Liposomes were formed by extrusion through 400 nm polycarbonate membranes (Avanti Polar Lipids) and were treated with Triton X-100 at a 0.5:1 (w/w) detergent to lipid ratio prior to the addition of protein at 0.25 μg protein per mg lipid. The protein/lipid mixture was left at room temperature for 30 min before detergent was removed using SM2 Biobeads (BioRad). The mixture was then incubated with gentle agitation, with four consecutive batches of Biobeads (80 mg per ml). Proteoliposomes were concentrated by centrifugation at 150,000 g for 30 min, resuspended at 100 mg lipid per ml and either used immediately or flash-frozen in liquid nitrogen and stored at −80 °C.
# (§3) Mutant and wild-type GltPh-mediated transport of radiolabelled substrate was assayed by diluting proteoliposomes (100 mg lipid per ml) 133-fold into uptake buffer (100 mM NaCl, 20 mM HEPES-Tris pH 7.5, 1 μM valinomycin, 100 nM–1 µM L-[^3H]substrate) pre-warmed to 30 °C. At each time point, a 200 µl aliquot was removed and diluted 10-fold into ice-cold quench buffer (100 mM LiCl, 20 mM HEPES-Tris pH 7.5), followed by immediate filtration over nitrocellulose filters (0.22 μm pore size, Millipore). The filters were washed with ice-cold quench buffer and assayed for radioactivity using a Trilux beta counter (PerkinElmer). To establish substrate concentration–response curves, extraliposomal L-[^3H]substrate was varied between 500 nM and 100 µM, maintaining NaCl concentrations at 300 mM. For inhibitor concentration–response curves, for wild-type GltPh 100 nM L-[^3H]aspartate, and for mutant GltPh 1 µM L-[^3H]serine, was co-applied with varying inhibitor concentrations. Background levels of uptake were measured by diluting proteoliposomes into internal buffer (100 mM KCl, 20 mM HEPES-Tris pH 7.5) containing 1 µM of valinomycin and the indicated concentrations of L-[^3H]substrate.
# Supplementary Figure 6. GltPh‐R397C, ASCT1 and ASCT2 are functional cysteine transporters. (a) Purified GltPh‐R397C was reconstituted into liposomes and 10µM 35S‐cysteine transport was measured over 10 minutes alone or in the presence of 1 mM dithiothreitol (DTT). Background levels of uptake were measured by diluting proteoliposomes into internal buffer (100 mM KCl, 20 mM HEPES‐Tris pH 7.5) containing 1 µM of valinomycin and the 10µM 35S‐cysteine. […]
# (c) Neutral amino acid exchange in GltPh‐R397C. Counterflow experiments in which Na+ and amino acid loaded liposomes were used to detect the transport of a range of unlabelled neutral amino acids by exchanging with external 3H‐serine. Counterflow assays were performed using liposomes containing 200mM NaCl, 20 mM HEPES/Tris pH 7.5, and 1 mM of unlabelled amino acid as indicated. […]
# wild-type GltPh [2] = molecular target: T1, wild-type GltPh; assay: Proteoliposome transport assay, wild-type GltPh; assay type: biochemical
# Experimental: as §1, §2, §3
# GltPh-G396S/R397C = molecular target: T3, GltPh-G396S/R397C (Pyrococcus horikoshii, UniProt O59010, G396S/R397C); assay: biochemical; assay type: biochemical; details: for Reduction of L-[3H]serine transport by unlabelled competitor (in words): GltPh-R397C/G396S, 10 µM L-[3H]serine, 100-fold excess unlabelled amino acid
# T3 construct: hexa-His (N, cleaved yes); made in house; host or cells: Escherichia coli Top10 (pBAD)
# T3 sequence (O59010 whole entry G396S/R397C): as the sequence (O59010 whole entry R397C) above, with G396S counted along it
# Experimental: as §1, §2, §3
# ASCTs = test system: ASCTs; design: method as in PMID 9463476; details: quoted in discussion; cited from earlier work
# wild-type GltPh [3] = molecular target: T1, wild-type GltPh; details: published values, cited from earlier work
# GltPh-R397C [4] = molecular target: T2, GltPh-R397C; assay: biochemical; assay type: binding
# Experimental: Fluorescence-based binding assays were performed by titrating purified protein (50 μg per ml) in 20 mM HEPES/Tris, pH 7.4, 200 mM choline chloride, 0.4 mM n-dodecyl^−β-D-maltopyranoside, 200 nM styryl fluorescent dye RH421 (Invitrogen, Inc., Grand Island, NY) with NaCl, L-ser, L-cys or benzylcysteine at 25 °C[51]. The RH421 dye was excited at 532 nm, and the fluorescence was collected at 628 nm using a QuantaMaster (Photon International Technology, Inc., Edison, NJ). Fluorescence emissions were measured after at least 10 min equilibration to ensure a stabilised signal. The data were analysed using GraphPad Prism version 6.0 for Mac (GraphPad Software, La Jolla California USA). Fractional fluorescence changes were normalised to maximal fluorescence changes, then plotted as a function of ligand concentration and fitted to the Hill equation. All the experiments were performed at least in triplicate.
# Analysis of ligand binding data. The voltage sensitive amphipathic dye RH421 reports on Na+ binding to purified GltPh protein in detergent3. RH421 was used to follow Na+ binding to GltPh‐R397C protein either alone or in reactions coupled to binding of amino acids. […]
# Coupled ions and amino acid binding was probed by titrating amino acids to the GltPh‐R397C protein in the presence of 10 – 100 mM Na+ ions. The obtained isotherms were analyzed to estimate an apparent number of Na+ ions coupled to binding of the amino acids.
# Raw data were first normalized by the initial fluorescence of RH421 and plotted as fraction of fluorescence change (Supplementary […]
# total amount of dye and detergent in the assay buffer.
# To take into account significant amino acid‐independent Na+ binding, the sets of binding isotherms obtained at variable Na+ concentrations were fitted globally to a simplified binding equation: […]
# KD,a is the combined dissociation constant for coupled Na+ and ligand binding and n is the apparent number of coupled ions. Fraction of the protein bound to either Na+ ions alone or to the ions and the […]
# Fraction of the protein already bound to Na+ ions before ligand addition is: […]
# Fractional fluorescence change Y is fitted to an equation: […]
# where Y0 and ∆Y are, respectively, baseline and the signal difference between fully bound and apo […]
# KD,a and n were fitted globally for each ligand. Y0 and ∆Y were adjusted for each isotherm independently. […]
# individual isotherm to a standard Hill equation, plotted the apparent dissociation constants as functions of Na+ concentrations and compared the values to those predicted using the parameters from the global fits (Supplementary Figure 8).
# glutamate transporters = test system: glutamate transporters; design: method as in PMID 9463476; details: quoted in discussion; cited from earlier work
# GltPh-R397C [5] = molecular target: T2, GltPh-R397C; assay type: biochemical; details: 100 nM L-[3H]aspartate, 1 µM L-[3H]glutamine, 10 µM 35S-cysteine ± 1 mM DTT, Na+ gradient
# [6] = molecular target: the molecule itself; assay: crystal structure; hanging-drop vapour diffusion at 4 °C, protein ~7 mg per ml in n-decyl-maltopyranoside, 15-21% PEG1000, 0.1 M LiSO4, 0.05 M citric acid, 0.05 M Na2HPO4; space group P61; refined with threefold NCS restraints; with L-aspartate (wild type) or 5 mM L-cysteine, L-serine or benzylcysteine (R397C)
# [7] = GltPh-G396S/R397C, 1 µM L-[3H]serine, read-out: IC50 for inhibition of L-[3H]serine transport
molecule,measurement,setting,value
C[C@H](N)C(=O)O [L-alanine],EC50,GltPh-R397C [1],14 ± 3 µM
same,Transport of radiolabelled substrate into proteoliposomes (in words),"wild-type GltPh [2]; 1 µM L-[3H]substrate, Na+ gradient, pH 7.5",not transported
same,EC50,GltPh-G396S/R397C,4 ± 0.2 µM
N[C@@H](COCc1ccccc1)C(=O)O [benzylserine],Affinity for the ASCTs,ASCTs,~ 1 mM
same,IC50,"GltPh-R397C [1]; GltPh-R397C, 1 µM L-[3H]serine, read-out: IC50 for inhibition of L-[3H]serine transport",110 ± 10 µM
same,IC50 for inhibition of L-[3H]aspartate transport,wild-type GltPh [2]; 100 nM L-[3H]aspartate,ineffective
same,IC50,GltPh-G396S/R397C; [7],120 ± 20 µM
CSCC[C@H](N)C(=O)O [L-methionine],Reduction of L-[3H]serine transport by unlabelled competitor (in words),GltPh-G396S/R397C,to a similar extent
[Na+] [Na+],Kd,"wild-type GltPh [3]; ref Reyes et al., 2013, read-out: KD,Na of Na+ binding",99300 µM
same,nNa of Na+ binding,"wild-type GltPh [3]; ref Reyes et al., 2013",1.6
same,Hill coefficient nNa of Na+ binding in the absence of amino acids,GltPh-R397C [4]; GltPh-R397C,1.2 and 1.2 ± 0.1
same,Kd,"GltPh-R397C [4]; GltPh-R397C, Hill fit, read-out: KD,Na of Na+ binding in the absence of amino acids",38000 µM
"N[C@H](C(=O)O)[C@H](OCc1ccccc1)C(=O)O [TBOA, L-threo-β-oxybenzylaspartic acid]",Affinity for the glutamate transporters,glutamate transporters,~ 50 μM
same,IC50 for inhibition of L-[3H]serine transport,"GltPh-R397C [1]; GltPh-R397C, 1 µM L-[3H]serine",poorly inhibited
same,IC50,"wild-type GltPh [2]; 100 nM L-[3H]aspartate, read-out: IC50 for inhibition of L-[3H]aspartate transport",2 ± 1 µM
same,IC50,GltPh-G396S/R397C; [7],500 ± 200 µM
N[C@@H](CC(=O)O)C(=O)O [L-aspartate],Transport of radiolabelled substrate into proteoliposomes (in words),GltPh-R397C [5],no longer capable of transporting
same,Transport of radiolabelled substrate into proteoliposomes (in words),"GltPh-G396S/R397C; GltPh-G396S/R397C, 100 nM L-[3H]aspartate, 1 µM L-[3H]glutamine, Na+ gradient, pH 7.5",does not effectively transport
CC(C)[C@H](N)C(=O)O [L-valine],Reduction of L-[3H]serine transport by unlabelled competitor (in words),GltPh-G396S/R397C,to a similar extent
N[C@@H](CSCc1ccccc1)C(=O)O,Affinity for the ASCTs,ASCTs,~ 1 mM
same,IC50 for inhibition of L-[3H]serine transport,"GltPh-R397C [1]; GltPh-R397C, 1 µM L-[3H]serine",reduced affinity compared with benzylserine
same,Kd,GltPh-R397C [4],1000 ± 300 µM
same,Apparent number of Na+ ions coupled to binding (n),"GltPh-R397C [4]; GltPh-R397C, global fit of isotherms at 10–100 mM Na+, 25 °C",0.8 ± 0.04
same,IC50 for inhibition of L-[3H]aspartate transport,wild-type GltPh [2]; 100 nM L-[3H]aspartate,ineffective
same,IC50,GltPh-G396S/R397C,280 ± 60 µM
B1,stoichiometry N,[6],3
B2,binding result,[6],binds
